The series in a line: Storage stability of crystalline form B (HPLC, IR, XRPD). Type of series: physicochemical. Conditions: storage for 1 year up to 40° C./75% rh. The method, then: “IR” is used herein as an acronym of Infra Red spectroscopy. IR spectra were recorded as film of a Nujol suspension of approximately 5 mg of sample and few Nujol between two sodium chloride plates, with an FTIR spectrometer in transmittance. The Spectrometer is a Nicolet™ 20SXB or equivalent (resolution 2 cm^−1, 32 or more coadded scans, MCT detector).
“XRPD (is used herein as an acronym of X-Ray Powder Diffraction)” X-ray diffraction patterns were recorded at ambient conditions in transmission geometry with a STOE STADIP diffractometer (Cu Kα radiation, primary monochromator, position sensitive detector, angular range 3° to 42° 2 Theta, approximately 60 minutes total measurement time). The samples were prepared and analyzed without further processing (e.g. grinding or sieving) of the substance. “TGA (is used herein as an acronym of ThermoGravimetric Analysis)” was performed on a Mettler-Toledo™ thermogravimetric analyzer (TGA850 or TGA851). System suitability tests and calibrations were carried out according to the internal standard operation procedure.
The Form B has been characterized with IR and XRPD. The chemical stability was measured by HPLC (high performance liquid chromatography).

Here are results for 1 compound from patent publication US20090215826A1, “SOLID FORMS OF A PYRROLIDINE-3,4-DICARBOXAMIDE DERIVATIVE” (priority 2007, published 2009).

Turning to `O=C(Nc1ccc(Cl)cn1)[C@H]1CN(CC(F)F)C[C@@H]1C(=O)Nc1ccc(-n2ccccc2=O)cc1F` [Form B, (3R,4R)-1-(2,2-Difluoroethyl)-pyrrolidine-3,4-dicarboxylic acid 3-[(5-chloro-pyridin-2-yl)-amide] 4-{[2-fluoro-4-(2-oxo-2H-pyridin-1-yl)-phenyl]-amide}], the “chemical stability (degradation) measured by HPLC” value is listed as “No significant degradation”; the “crystal form compared to the initial analysis (IR and XRPD)” value is “has not been changed”.
